ChEMBL document CHEMBL5729548, “ACLY inhibitors and uses thereof” (2023)

Biological target: T1, ATP-citrate synthase (Homo sapiens, UniProt P53396)
T1 sequence (P53396 whole entry): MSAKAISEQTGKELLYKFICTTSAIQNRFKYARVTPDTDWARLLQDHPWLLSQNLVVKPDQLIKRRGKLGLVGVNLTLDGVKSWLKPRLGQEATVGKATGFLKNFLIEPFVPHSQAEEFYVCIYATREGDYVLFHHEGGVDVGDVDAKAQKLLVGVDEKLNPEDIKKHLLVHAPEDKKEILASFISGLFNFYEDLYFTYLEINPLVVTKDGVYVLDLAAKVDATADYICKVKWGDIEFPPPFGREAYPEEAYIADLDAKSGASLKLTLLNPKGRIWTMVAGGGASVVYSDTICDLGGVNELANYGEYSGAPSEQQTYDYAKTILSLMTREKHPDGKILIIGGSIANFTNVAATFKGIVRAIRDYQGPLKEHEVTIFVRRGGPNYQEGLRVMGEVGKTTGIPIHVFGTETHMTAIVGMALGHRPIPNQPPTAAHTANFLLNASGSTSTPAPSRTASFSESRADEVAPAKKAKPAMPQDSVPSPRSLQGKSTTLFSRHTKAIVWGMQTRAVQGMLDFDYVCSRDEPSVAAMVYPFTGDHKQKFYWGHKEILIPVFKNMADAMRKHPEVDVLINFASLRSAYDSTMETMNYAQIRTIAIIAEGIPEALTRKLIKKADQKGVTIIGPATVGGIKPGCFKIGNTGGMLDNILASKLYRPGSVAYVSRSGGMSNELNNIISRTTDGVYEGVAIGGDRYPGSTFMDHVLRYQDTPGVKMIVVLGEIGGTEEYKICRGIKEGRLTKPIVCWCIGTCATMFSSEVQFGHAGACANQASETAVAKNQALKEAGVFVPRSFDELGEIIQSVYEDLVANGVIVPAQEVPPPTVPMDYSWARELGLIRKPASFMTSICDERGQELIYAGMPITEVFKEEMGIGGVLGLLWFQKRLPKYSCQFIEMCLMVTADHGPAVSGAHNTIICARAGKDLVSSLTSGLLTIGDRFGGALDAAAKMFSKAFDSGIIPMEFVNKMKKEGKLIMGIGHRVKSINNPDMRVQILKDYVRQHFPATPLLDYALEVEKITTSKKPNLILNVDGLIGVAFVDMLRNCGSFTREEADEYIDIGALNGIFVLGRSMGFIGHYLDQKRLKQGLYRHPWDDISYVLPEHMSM
Experiment: ADP-Glo Assay: Materials and Instruments Used in the ADP-Glo AssayVendor Cat No.Materials ACL Sino Biological 11769-H07BCoANa2 Sigma C3144Potassium Citrate Sigma 89306ATP Promega V915BADP-GloTM Kinase Assay Promega V9102kitHEPES Life Technologies 15630080MgCl2 Sigma M1028Brij 35 detergent Merck 203728DTT Sigma 646563DMSO MP 196055Optiplate-384, White 384- Perkin Elmer 6007290well384 dilution …

IC50: < 0.05 µM
SMILES: O=C(c1cc(Cl)c(O)c(S(=O)(=O)Nc2cc(-c3cc4ccccc4s3)c(F)cc2OC(F)(F)F)c1)N1CCC1
